From ChEMBL document CHEMBL2176866, “Progress in the development and application of small molecule inhibitors of bromodomain-acetyl-lysine interactions” (J Med Chem, 2012) come the findings set out here.

The nature of series [1]: AUC (infinity) in mouse. Also on record: time infinity. Type of series: ADME, organism-based. As to conditions: plasma.
Series [2] is described as follows: Half life in mouse. Type of series: ADME, organism-based. The following applies: in vivo.

As to `COc1cc2c(cc1-c1c(C)noc1C)ncc1[nH]c(=O)n([C@H](C)c3ccccn3)c12`, in series [1], the AUC(0-inf) (commonly the area under the concentration-time curve extrapolated to infinity) was determined as 680 µM·h. Also, in series [2], the half-life (usually the time needed for the level to fall by half in the phase considered) is 7.2 h.
`CCNC(=O)C[C@@H]1N=C(c2ccc(Cl)cc2)c2cc(OC)ccc2-n2c(C)nnc21` [MOLIBRESIB] displayed a total exposure AUC(0-inf) in series [1] of 40 µM·h. This compound also showed a half-life in series [2] of 1.6 h.
